# Laboratory results reported in patent US20260355192A1, “PROPHYLACTIC OR THERAPEUTIC AGENT FOR PERIOSTIN-MEDIATED DISEASE AND PRURITUS ASSOCIATED THEREWITH” (SAGA UNIVERSITY, priority 2022, published 2026).
# Tests used:
# [1] = system: scratching behaviors in FADS mice; test: Scratching behaviors in FADS mice upon single systemic administration of αvβ3 integrin inhibitors; assay type: in vivo, mouse (FADS, Nestin-cre/Ikk2ff)
# Description: Nestin-cre transgenic mice were crossed with IKK2^ff mice to prepare Nestin-cre/Ikk2^ff mice specifically lacking IKK2 in their facial skin fibroblasts (Nunomura S, et al. J Invest Dermatol. 139:1274-1283, 2019). These mice inevitably develop atopic dermatitis-like rash limited to the face and intense itchy symptoms, and were therefore designated as Facial Atopic Dermatitis with Scratching (FADS) mice. […] For evaluation of the prophylactic or therapeutic agent of the present invention, FADS mice at 3 to 4 weeks of age or older were used because of showing spontaneous scratching behaviors. It should be noted that in this Example section, the above compound of formula (I) (more particularly “CP4715”) was used as the prophylactic or therapeutic agent of the present invention.
# FADS mice were acclimated for 20 minutes to the environment of a recording cage, and then recorded with a video camera. The recorded videos were replayed, and scratching behaviors were counted assuming that hind paw scratching to the face and the subsequent movement of toe licking or paw lowering to the ground were regarded as one cycle of scratching behavior.
# Prior to the administration of the above αvβ3 integrin inhibitors, FADS mice were recorded for 60 minutes with a video camera and then allowed to rest for 15 minutes. The compounds except for GLPG-0187 were each dissolved at 89.5 mM in a diluent (physiological saline containing 50% DMSO and 89.5 mM HCL), from which an amount corresponding to 53.7 μmol/kg per mouse was then taken and diluted with 0.3 mL of PBS, and then administered intraperitoneally. […] Mice administered with 0.3 mL of PBS containing an equal amount of the diluent as calculated based on the body weight were used as a control group.
# The mice were recorded for 60 minutes with a video camera immediately after administration of the above αvβ3 integrin inhibitors. The number of scratchings before administration was used as a baseline, and % change from the baseline after administration was calculated for each compound. For statistical analysis, paired t-test was used. A P-value of less than 0.05 was considered to be statistically significant. The effect of an inhibitor whose mean change from the baseline was −65% or more at a P-value of less than 0.01 was expressed as “++”; the effect of an inhibitor whose mean change from the baseline was −60% or less at a P-value of less than 0.05 was expressed as “+”; and the effect of an inhibitor whose mean change from the baseline was −60% or less at a P-value of 0.05 or higher was expressed as “−.”
# integrin αvβ3 = molecular target: T1, integrin αvβ3 (Homo sapiens, UniProt P05106+P06756); test: Inhibition of periostin-dependent adhesion of SW480 cells expressing integrin αvβ3; assay type: cell-based; settings: immobilized recombinant human periostin, FIG. 6
# T1 construct: SW480 cells, a human colon cancer cell line not expressing integrin β3; expressed in transfected cells; host or cells: SW480 cells (human colon cancer) stably expressing human integrin β3
# T1 sequence (P06756 31-889 limits assumed): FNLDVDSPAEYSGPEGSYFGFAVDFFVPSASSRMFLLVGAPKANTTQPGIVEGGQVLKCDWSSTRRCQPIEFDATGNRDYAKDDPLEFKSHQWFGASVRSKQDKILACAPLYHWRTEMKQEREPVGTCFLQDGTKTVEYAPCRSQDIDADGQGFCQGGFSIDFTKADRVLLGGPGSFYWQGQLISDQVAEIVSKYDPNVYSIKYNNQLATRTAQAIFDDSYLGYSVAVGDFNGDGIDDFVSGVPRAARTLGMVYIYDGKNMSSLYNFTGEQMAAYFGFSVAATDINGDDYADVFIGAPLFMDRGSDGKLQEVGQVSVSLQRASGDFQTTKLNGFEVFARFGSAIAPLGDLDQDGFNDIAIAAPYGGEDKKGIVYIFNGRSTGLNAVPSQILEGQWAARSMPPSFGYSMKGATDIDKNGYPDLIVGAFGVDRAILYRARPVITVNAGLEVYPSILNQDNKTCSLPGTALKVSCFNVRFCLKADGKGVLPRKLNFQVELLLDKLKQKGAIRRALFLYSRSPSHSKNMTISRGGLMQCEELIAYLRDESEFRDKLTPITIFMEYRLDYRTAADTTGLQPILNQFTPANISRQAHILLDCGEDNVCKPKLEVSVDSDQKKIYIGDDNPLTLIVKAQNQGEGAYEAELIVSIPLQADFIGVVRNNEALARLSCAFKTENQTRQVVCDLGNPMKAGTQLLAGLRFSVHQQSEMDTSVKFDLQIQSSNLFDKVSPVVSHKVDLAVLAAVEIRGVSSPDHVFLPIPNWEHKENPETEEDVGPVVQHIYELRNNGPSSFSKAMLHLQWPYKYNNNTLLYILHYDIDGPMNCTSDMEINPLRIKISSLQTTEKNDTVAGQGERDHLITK
# T1 sequence (P06756 891-1048 partner limits assumed): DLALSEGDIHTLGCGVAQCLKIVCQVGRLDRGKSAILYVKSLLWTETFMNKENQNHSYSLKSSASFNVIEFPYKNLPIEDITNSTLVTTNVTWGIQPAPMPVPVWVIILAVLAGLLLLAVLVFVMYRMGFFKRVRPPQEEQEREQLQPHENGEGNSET
# T1 sequence (P05106 27-788): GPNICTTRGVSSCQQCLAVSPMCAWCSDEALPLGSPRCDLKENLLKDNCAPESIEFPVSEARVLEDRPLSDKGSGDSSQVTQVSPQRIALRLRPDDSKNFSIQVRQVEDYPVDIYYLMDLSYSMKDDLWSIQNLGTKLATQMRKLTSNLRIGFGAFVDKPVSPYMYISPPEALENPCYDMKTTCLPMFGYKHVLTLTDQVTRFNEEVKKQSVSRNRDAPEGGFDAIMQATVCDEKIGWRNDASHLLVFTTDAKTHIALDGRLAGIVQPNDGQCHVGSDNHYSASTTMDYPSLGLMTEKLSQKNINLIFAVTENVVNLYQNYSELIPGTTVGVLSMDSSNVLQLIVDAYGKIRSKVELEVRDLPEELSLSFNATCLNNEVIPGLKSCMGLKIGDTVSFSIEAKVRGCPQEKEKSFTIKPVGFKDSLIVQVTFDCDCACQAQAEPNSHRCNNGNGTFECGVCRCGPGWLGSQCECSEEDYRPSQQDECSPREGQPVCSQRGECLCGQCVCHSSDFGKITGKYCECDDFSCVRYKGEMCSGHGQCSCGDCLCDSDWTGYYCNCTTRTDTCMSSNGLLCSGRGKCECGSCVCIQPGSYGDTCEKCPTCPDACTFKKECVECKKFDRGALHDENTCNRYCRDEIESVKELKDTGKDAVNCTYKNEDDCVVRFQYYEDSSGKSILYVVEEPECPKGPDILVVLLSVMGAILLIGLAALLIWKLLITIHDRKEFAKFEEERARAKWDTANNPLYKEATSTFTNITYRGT
# Experimental: For use in cell adhesion experiments, SW480 cells, a human colon cancer cell line not expressing integrin β3, were genetically engineered to stably express human integrin β3 (Nanri Y, et al. Am J Respir Cell Mol Biol. 62:204-216, 2020). The compounds shown in Table 1 were examined for their inhibitory activity against adhesion between integrin αvβ3 and periostin according to the following procedures. First, a 96-well plate was treated with 10 μg/mL recombinant human periostin (Bio-Techne) at 4 °C for 16 hours to immobilize periostin. The SW480 cells expressing integrin αvβ3 (5×10^4 cells) were reacted at room temperature for 15 minutes with the above compounds at 0.001, 0.01, 0.1 and 1 μM in serum-free DMEM (Dulbecco's Modified Eagle Medium) containing 0.5% bovine serum albumin and 0.25 mM MnCl2. A group receiving no compound was used as a control. The reacted cell suspensions were added to separate wells of the above human periostin-immobilized plate, and the plate was centrifuged at 10×g for 5 minutes and then cultured at 37 °C for 60 minutes. Then, after the adhered cells were washed to remove unbound cells, the adhered cells were fixed with 1% formaldehyde and stained with 0.5% crystal violet. The fixed and stained cells were solubilized with 0.2% Triton X-100 and measured for absorbance at 595 nm. The absorbance of the control (i.e., the group receiving no compound) was set to 0% inhibition. […] Cell adhesion in this test system is periostin-dependent, and a compound inhibiting this cell adhesion can be referred to as a periostin receptor antagonist.
# [2] = system: glycoprotein (GP) IIb/IIIa receptor; settings: cited from earlier work
smiles,measurement,setting,value
"COc1cc(C(=O)NC[C@H](NS(=O)(=O)c2ccccc2)C(=O)O)ccc1N1CCC(NC2=NCCCN2)CC1 [CP4715, (S)-3-(3-methoxy-4-(4-((1,4,5,6-tetrahydropyrimidin-2-yl)amino)piperidin-1-yl)benzamido)-2-(phenylsulfonamido)propanoic acid]",% Change from baseline in the number of scratchings (mean ± standard error),"[1]; 53.7 μmol/kg i.p., single, 60 minutes after administration vs before administration",−68.0 ± 14.0%
same,grade of effect on % change from the baseline in the number of scratchings,"[1]; single i.p., 53.7 μmol/kg (GLPG-0187 5.37 μmol/kg), paired t-test",++ (mean change from the baseline was −65% or more at a P-value of less than 0.01)
same,IC50,"integrin αvβ3; SW480 cells expressing human integrin β3, compounds at 0.001-1 μM, read-out: 50% inhibition concentration (IC50 value) for cell adhesion inhibitory activity",≤ 1 nM
same,cell adhesion inhibitory effect (in words),integrin αvβ3; SW480 cells expressing integrin αvβ3,high
same,antagonistic effect on GP IIb/IIIa receptor,[2],antagonistic effect
